Source: US9133158B2, “Bicyclic dihydroisoquinoline-1-one derivatives” (Hoffmann-La Roche Inc., priority 2011, dated 2015)

Assays:
human CYP11B1 = target: T1, human CYP11B1 (Homo sapiens, UniProt P15538); test: G-402 cellular enzyme assay, human CYP11B1 (cortisol release, HTRF); type: cell-based; details: G-402 cells, 1 μM Deoxycortisol
T1 construct: expressed in transfected cells
T1 sequence (P15538 25-503): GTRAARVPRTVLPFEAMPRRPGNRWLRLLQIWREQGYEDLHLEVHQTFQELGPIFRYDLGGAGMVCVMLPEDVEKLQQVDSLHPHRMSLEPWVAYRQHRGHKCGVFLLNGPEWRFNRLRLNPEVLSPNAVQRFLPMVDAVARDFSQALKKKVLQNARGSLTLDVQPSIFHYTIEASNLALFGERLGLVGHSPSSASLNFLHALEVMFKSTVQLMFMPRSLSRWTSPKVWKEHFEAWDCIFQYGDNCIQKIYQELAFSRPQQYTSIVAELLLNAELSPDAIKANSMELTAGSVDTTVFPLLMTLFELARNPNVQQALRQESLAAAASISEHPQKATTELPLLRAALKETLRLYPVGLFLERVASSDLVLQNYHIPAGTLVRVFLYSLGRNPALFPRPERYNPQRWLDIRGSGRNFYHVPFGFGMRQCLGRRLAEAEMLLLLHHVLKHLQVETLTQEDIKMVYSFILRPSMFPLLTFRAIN
From the text: Herein we identified the use of the G-402 cell line as a host cell to ectopically express (transiently or stably) enzymes of the CYP11 family. Specifically we developed stable G-402 cells expressing ectopically human CYP11B1, human CYP11B2, human CYP11A1, cynmolgus CYP11B1 or cynomolgus CYP11B2 enzyme activity. Importantly the identified cell line G-402 expresses co-factors (adrenodoxin and adrenodoxin reductase) important for the activity of the CYP11 family and no relevant enzyme activity of the CYP11 family (in comparison to H295R cells) was detected in these cells. Therefore the G-402 cell line is uniquely suited as a host cell for the ectopic expression of enzymes from the CYP11 family.
G-402 cells can be obtained from ATCC(CRL-1440) and were originally derived from a renal leiomyoblastoma.
The expression plasmids contain the ORF for either human/cyno CYP11B1 or CYP11B2 under the control of a suitable promoter (CMV-promoter) and a suitable resistance marker (neomycin). Using standard techniques the expression plasmid is transfected into G-402 cells and these cells are then selected for expressing the given resistance markers. Individual cell-clones are then selected and assessed for displaying the desired enzymatic activity using 11-Deoxycorticosterone (Cyp11B2) or 11-Deoxycortisol (Cyp11B1) as a substrate.
G-402 cells expressing CYP11 constructs were established as described above and maintained in McCoy's 5a Medium Modified, ATCC Catalog No. 30-2007 containing 10% FCS and 400 μg/ml G418 (Geneticin) at 37° C. under an atmosphere of 5% CO2/95% air.
Cellular enzyme assays were performed in DMEM/F12 medium containing 2.5% charcoal treated FCS and appropriate concentration of substrate (0.3-10 uM 11-Deoxycorticosterone, 11-Deoxycortisol or Corticosterone). For assaying enzymatic activity, cells were plated onto 96 well plates and incubated for 16 h. An aliquot of the supernatant is then transferred and analyzed for the concentration of the expected product (Aldosterone for CYP11B2; Cortisol for CYP11B1). The concentrations of these steroids can be determined using HTRF assays from CisBio analyzing either Aldosterone or Cortisol.
Inhibition of the release of produced steroids can be used as a measure of the respective enzyme inhibition by test compounds added during the cellular enzyme assay. The dose dependent inhibition of enzymatic activity by a compound is calculated by means of plotting added inhibitor concentrations (x-axes) vs. measured steroid/product level (y-axes). The inhibition is then calculated by fitting the following 4-parameter sigmoidal function (Morgan-Mercer-Flodin (MMF) model) to the raw data points using the least squares method:
[formula] wherein, A is the maximum y value, B is the EC50 factor determined using XLFit, C is the minimum y value and D is the slope value.
EC50 values for compounds claimed herein were tested with the G402-based assay system described. Cyp11B2 enzyme activity was tested in presence of 1 μM Deoxycorticosterone and variable amounts of inhibitors; Cyp11B1 enzyme activity was tested in presence of 1 μM Deoxycortisol and variable amounts of inhibitors.

human CYP11B2 = target: T2, human CYP11B2 (Homo sapiens, UniProt P19099); test: G-402 cellular enzyme assay, human CYP11B2 (aldosterone release, HTRF); type: cell-based; details: G-402 cells, 1 μM Deoxycorticosterone
T2 construct: expressed in transfected cells
T2 sequence (P19099 25-503): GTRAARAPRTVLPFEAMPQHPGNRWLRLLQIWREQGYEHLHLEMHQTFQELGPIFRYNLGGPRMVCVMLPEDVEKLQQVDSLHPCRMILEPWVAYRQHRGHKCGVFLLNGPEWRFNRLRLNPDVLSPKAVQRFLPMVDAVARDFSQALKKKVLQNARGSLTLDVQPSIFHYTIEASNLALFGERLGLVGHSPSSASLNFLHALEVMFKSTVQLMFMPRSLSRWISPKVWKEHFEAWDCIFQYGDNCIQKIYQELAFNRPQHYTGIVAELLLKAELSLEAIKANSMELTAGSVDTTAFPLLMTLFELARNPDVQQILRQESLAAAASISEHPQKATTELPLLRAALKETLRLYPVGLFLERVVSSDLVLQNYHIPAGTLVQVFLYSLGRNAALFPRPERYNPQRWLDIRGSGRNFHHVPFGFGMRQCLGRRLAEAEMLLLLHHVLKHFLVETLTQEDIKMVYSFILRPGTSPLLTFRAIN
Method in brief: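 Stable G-402 transfectants; 16 h incubation with inhibitor plus substrate — CYP11B2: 1 μM deoxycorticosterone, aldosterone read; CYP11B1: 1 μM deoxycortisol, cortisol read. HTRF on supernatant. Medium DMEM/F12, 2.5% charcoal FCS. EC50 via MMF sigmoidal fit.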

SMILES | EC50 (human CYP11B1) [nM] | EC50 (human CYP11B2) [nM]
O=C1c2ccc(Cl)cc2CCN1c1cncc(CNc2cccc(Cl)c2)c1 [Example 261, 6-Chloro-2-{5-[(3-chloro-phenylamino)-methyl]-pyridin-3-yl}-3,4-dihydro-2H-isoquinolin-1-one] | 105 | 26.7
O=C(c1cncc(N2CCc3cc(Cl)ccc3C2=O)c1)N1CCC(O)C1 (stereo not shown) [Example 40, 6-Chloro-2-[5-(3-hydroxy-pyrrolidine-1-carbonyl)-pyridin-3-yl]-3,4-dihydro-2H-isoquinolin-1-one] | 10500 | 1680
O=C1c2ccc(Cl)cc2CCN1c1cncc2ccccc12 [Example 73, 6-Chloro-3,4-dihydro-[2,4′]biisoquinolinyl-1-one] | 251 | 13.5
O=C1c2ccc(Cl)cc2CCN1c1cncc(CN2CCCS2(=O)=O)c1 [Example 82, 6-Chloro-2-[5-(1,1-dioxo-1^λ6-isothiazolidin-2-ylmethyl)-pyridin-3-yl]-3,4-dihydro-2H-isoquinolin-1-one] | 597 | 78.9
CC(O)c1cncc(N2C(=O)c3ccc(Cl)cc3C2(C)C)c1 (stereo not shown) [Example 132, 5-Chloro-2-[5-(1-hydroxy-ethyl)-pyridin-3-yl]-3,3-dimethyl-2,3-dihydro-isoindol-1-one] | 527 | 37.8
Cc1ccncc1N1C(=O)c2ccc(Cl)cc2C1C (stereo not shown) [Example 121, 5-Chloro-3-methyl-2-(4-methyl-pyridin-3-yl)-2,3-dihydro-isoindol-1-one] | 39 | 7.1
CC(Nc1ccccc1)c1cncc(N2CCc3cc(Cl)ccc3C2=O)c1 (stereo not shown) [Example 278, 6-Chloro-2-[5-(1-phenylamino-ethyl)-pyridin-3-yl]-3,4-dihydro-2H-isoquinolin-1-one] | 34.4 | 6.1
CN1CCN(Cc2cncc(N3CCc4cc(Cl)ccc4C3=O)c2)C1=O [Example 159, 6-Chloro-2-[5-(3-methyl-2-oxo-imidazolidin-1-ylmethyl)-pyridin-3-yl]-3,4-dihydro-2H-isoquinolin-1-one] | 4460 | 209
CN1CCN(Cc2cncc(N3C(=O)c4ccc(Cl)cc4C3(C)C)c2)C1=O [Example 414, 5-Chloro-3,3-dimethyl-2-[5-(3-methyl-2-oxo-imidazolidin-1-ylmethyl)-pyridin-3-yl]-2,3-dihydro-isoindol-1-one] | 2040 | 30.2
Cn1cnc(CNc2cncc(N3CCc4cc(Cl)ccc4C3=O)c2)c1 [Example 228, 6-Chloro-2-{5-[(1-methyl-1H-imidazol-4-ylmethyl)-amino]-pyridin-3-yl}-3,4-dihydro-2H-isoquinolin-1-one] | 12400 | 263
CS(=O)(=O)NC1CCCc2c1cncc2N1Cc2cc(Cl)ccc2C1=O (single isomer, unassigned) [Example 327, N-[(R or S)-4-(5-Chloro-1-oxo-1,3-dihydro-isoindol-2-yl)-5,6,7,8-tetrahydro-isoquinolin-8-yl]-methanesulfonamide] | 10700 | 1360
O=C1c2ccc(Cl)cc2CCN1c1cncc(COC2CCCC2)c1 [Example 197, 6-Chloro-2-(5-cyclopentyloxymethyl-pyridin-3-yl)-3,4-dihydro-2H-isoquinolin-1-one] | 555 | 46.8
O=C1c2ccc(Cl)cc2C2(CC2)N1c1cncc(F)c1 [Example 290, 6′-Chloro-2′-(5-fluoropyridin-3-yl)spiro[cyclo-propane-1,1′-isoindol]-3′(2′H)-one] | 3910 | 101
CC(Nc1cccc(F)c1)c1cncc(N2CCc3cc(Cl)ccc3C2=O)c1 (stereo not shown) [Example 277, 6-Chloro-2-{5-[1-(3-fluoro-phenylamino)-ethyl]-pyridin-3-yl}-3,4-dihydro-2H-isoquinolin-1-one] | 163 | 64.1
Cc1c(-c2cncc(N3CCc4cc(Cl)ccc4C3=O)c2)ncn1C [Example 417, 6-Chloro-2-[5-(1,5-dimethyl-1H-imidazol-4-yl)-pyridin-3-yl]-3,4-dihydro-2H-isoquinolin-1-one] | 9090 | 224
CC(c1cncc(N2CCc3cc(Cl)ccc3C2=O)c1)N(C)C (stereo not shown) [Example 266, 6-Chloro-2-[5-(1-dimethylamino-ethyl)-pyridin-3-yl]-3,4-dihydro-2H-isoquinolin-1-one] | 276 | 44.4
O=C1c2ccc(Cl)cc2CCN1c1cncc(NCc2ccc(F)cc2)c1 [Example 222, 6-Chloro-2-[5-(4-fluoro-benzylamino)-pyridin-3-yl]-3,4-dihydro-2H-isoquinolin-1-one] | 343 | 80.3
O=C1c2ccc(Cl)cc2CCN1c1cncc(Cn2ccnc2C(F)(F)F)c1 [Example 189, 6-Chloro-2-[5-(2-trifluoromethyl-imidazol-1-ylmethyl)-pyridin-3-yl]-3,4-dihydro-2H-isoquinolin-1-one] | 710 | 55.3
Cc1ncccc1C(=O)NCc1cncc(N2C(=O)c3ccc(Cl)cc3C2(C)C)c1 [Example 439, N-[5-(6-Chloro-1,1-dimethyl-3-oxo-1,3-dihydro-isoindol-2-yl)-pyridin-3-ylmethyl]-2-methyl-nicotinamide] | 6900 | 119
CC1(C)c2cc(Cl)ccc2C(=O)N1c1cncc(CNS(C)(=O)=O)c1 [Example 391, N-[5-(6-Chloro-1,1-dimethyl-3-oxo-1,3-dihydro-isoindol-2-yl)-pyridin-3-ylmethyl]-methane-sulfonamide] | 1450 | 29.7
O=C1c2ccc(Cl)cc2CCN1c1cncc(-c2cccc(OC(F)(F)F)c2)c1 [Example 237, 6-Chloro-2-[5-(3-trifluoromethoxy-phenyl)-pyridin-3-yl]-3,4-dihydro-2H-isoquinolin-1-one] | 3610 | 204
CC1(C)c2cc(Cl)ccc2C(=O)N1c1cccnc1 [Example 128, 5-Chloro-3,3-dimethyl-2-pyridin-3-yl-2,3-dihydro-isoindol-1-one] | 4280 | 108
COc1ccc2c(n1)C(C)(C)N(c1cncc(OC(F)F)c1)C2=O [Example 295, 6-(5-Difluoromethoxy-pyridin-3-yl)-2-methoxy-7,7-dimethyl-6,7-dihydro-pyrrolo[3,4-b] pyridin-5-one] | 849 | 48.8
